{"source": "paper PMC11117207", "about": "“Discovery of Antimicrobial Agents Based on Structural and Functional Study of the Klebsiella pneumoniae MazEF Toxin–Antitoxin System” (Antibiotics, 2024)"}
{"system": "K. pneumoniae MazEF complex", "assay": "In vitro assay of MazEF complex disruption by peptides (RNase Alert fluorescence assay)", "format": "biochemical, Klebsiella pneumoniae", "settings": "20 μM peptide, 4 μM MazEF complex; 20 mM Tris pH 8.0, 200 mM NaCl; 30 min at 37 °C; RFU of 4 μM MazF = 100%, of 4 μM MazEF ~0%; three independent experiments", "excerpt": "(§1) To validate the ribonuclease activity of MazF toxin, an RNase Alert Kit (IDT, Coralville, IA, USA) was used. The principle is as follows. In the normal state, a fluorophore is covalently attached to one end of a synthetic RNA strand and is quenched by a quencher group at the other end of the RNA strand. However, the synthetic RNA is digested and the quencher is released when the ribonuclease interacts with substrates. Then, the released fluorophore emits fluorescence at 520 nm upon excitation at 490 nm. The resulting relative fluorescence units (RFU) were detected using a SPECTRAmax GEMINI XS spectrofluorometer (Molecular Devices, San Jose, CA, USA). All experiments were performed in triplicate.\n(§2) In addition to the disruption assay using small molecules, 10 short peptides that mimic the binding region between MazE and MazF were designed based on the tertiary crystal structure of the MazEF complex and purchased from ANYGEN (http://www.anygen.com, accessed on 21 April 2024) (Table 1). Among the peptides tested, six were designed to mimic the region on MazE where it binds to MazF, while the remaining four were designed to mimic the region on MazF where it binds to MazE. This design was chosen to investigate the interactions between MazE and MazF and their respective binding regions. The main principle and process were consistent with those of complex disruption by small molecules, which has been mentioned above. The concentration of the MazEF complex was fixed at 4 μM, and the concentration of competing peptides was 20 μM. Furthermore, all of the proteins and peptides used in this assay were prepared in 20 mM Tris, pH 8.0, and 200 mM NaCl. The MazEF complex was incubated with the peptides for 30 min at 37 °C before fluorescence measurement."}
{"substance": "DSQGKE [Peptide A, MazE-mimicking peptide DSQGKE (69–74)]", "disruption of the MazEF complex (RNase activity)": "approximately 65%"}
{"substance": "YLCDSQGKEML [Peptide E, MazE-mimicking peptide […]; (66–76)]", "disruption of the MazEF complex (RNase activity)": "80−83%"}
{"substance": "EYLCDSQGKEML [Peptide F, MazE-mimicking peptide […]; (65–76)]", "disruption of the MazEF complex (RNase activity)": "80−83%"}
{"system": "K. pneumoniae MazEF complex", "assay": "In vitro assay of MazEF complex disruption by peptides (RNase Alert fluorescence assay)", "format": "biochemical, Klebsiella pneumoniae", "settings": "20 μM peptide, 4 μM MazEF complex; 30 min at 37 °C", "excerpt": "as §1, §2"}
{"substance": "KSLDWKAR [Peptide I, MazF-mimicking peptide KSLDWKAR (79–86)]", "RNase activity compared with the related peptide (in words)": "dramatic increase in RNase activity"}
{"substance": "QVKSLDWKAR [Peptide J, MazF-mimicking peptide […]; (77–86)]", "RNase activity compared with the related peptide (in words)": "dramatic increase in RNase activity"}
{"substance": "QVKSLD [Peptide H, MazF-mimicking peptide QVKSLD (77–82)]", "RNase activity compared with the related peptide (in words)": "no significant difference"}
{"substance": "YLCDSQGKE [Peptide B, MazE-mimicking peptide … (66–74)]", "RNase activity compared with the related peptide (in words)": "did not exhibit significant differences from Peptide A"}
{"substance": "KSLD [Peptide G, MazF-mimicking peptide KSLD (79–82)]", "RNase activity compared with the related peptide (in words)": "no significant difference"}
{"substance": "EYLCDSQGKE [Peptide C, MazE-mimicking peptide […]; (65–74)]", "RNase activity compared with the related peptide (in words)": "did not exhibit significant differences from Peptide A"}
